Reference: ChEMBL document CHEMBL4270483, “Effect of Hops Derived Prenylated Phenols on TNF-α Induced Barrier Dysfunction in Intestinal Epithelial Cells” (J Nat Prod, 2017)
Active and inactive are the calls of the source. The rule behind the calls is not given here.

Legend:
[1] = test system: Caco-2; assay: Cytotoxicity in human Caco2 cells assessed as reduction in ATP metabolism at 1 to 50 uM incubated for 24 hrs by cell-titer-Glo luminescent cell viability assay; assay type: ADME, cell-based; conditions: caco-2, 24 h
[2] = test system: Caco-2; assay: Inhibition of TNFalpha induced barrier dysfunctionin human Caco2 cells assessed as increase in transepithelial electrical resistance at 10 uM treated on apical side for 1 hr post TNFalpha stimulation on basolateral side for 24 hrs and measured after 72 hrs by cellZScope monitoring device based assay; assay type: functional, cell-based
[3] = test system: Caco-2; assay: Inhibition of TNFalpha induced barrier dysfunctionin human Caco2 cells assessed as increase in transepithelial electrical resistance at 10 uM pre-treated on apical side for 1 hr before TNFalpha stimulation on basolateral side for 72 hrs by cellZScope monitoring device based assay; assay type: functional, cell-based
[4] = test system: Caco-2; assay: Cytotoxicity in human Caco2 cells assessed as reduction in ATP metabolism at 100 uM incubated for 24 hrs by cell-titer-Glo luminescent cell viability assay; assay type: ADME, cell-based; conditions: caco-2, 24 h
[5] = test system: Caco-2; assay: Increase in transepithelial electrical resistance in human Caco2 cells at 10 uM pre-treated on apical side and measured after 36 to 72 hrs; assay type: functional, cell-based
[6] = test system: Caco-2; assay: Effect on barrier function in human Caco2 cells assessed as LY transport at 10 uM pre-treated on apical side for 1 hr and measured after 48 hrs; assay type: ADME, cell-based; conditions: caco-2, 48 h
[7] = test system: Caco-2; assay: Cytotoxicity in human Caco2 cells assessed as reduction in ATP metabolism at 1 to 100 uM incubated for 24 hrs by cell-titer-Glo luminescent cell viability assay; assay type: ADME, cell-based; conditions: caco-2, 24 h
[8] = test system: Caco-2; assay: Inhibition of TNFalpha induced barrier dysfunctionin human Caco2 cells assessed as prevention of morphological changes in ZO1 protein at 10 uM pre-treated on apical side for 1 hr before TNFalpha stimulation on basolateral side for 48 hrs by confocal laser scanning microscopy; assay type: functional, cell-based
[9] = test system: Caco-2; assay: Stimulation of growth in human Caco2 cells assessed as […] in ATP metabolism at 10 uM incubated for 24 hrs by cell-titer-Glo luminescent cell viability assay; assay type: functional, cell-based
[10] = test system: Caco-2; assay: Cytotoxicity in human Caco2 cells assessed as reduction in ATP metabolism at 50 to 100 uM incubated for 24 hrs by cell-titer-Glo luminescent cell viability assay; assay type: ADME, cell-based; conditions: caco-2, 24 h

| Compound | Activity [1] | inhibition [2] | inhibition [3] | Activity [4] | Activity [5] | Activity [6] | Activity [7] | inhibition [8] | Activity [9] | Activity [10] |
| --- | --- | --- | --- | --- | --- | --- | --- | --- | --- | --- |
| CC(C)=CCc1c(O)cc2c(c1O)C(=O)CC(c1ccc(O)cc1)O2 (centres undefined) | Non-Toxic | inactive | Active | 18% | Active | Non-Toxic |  |  |  |  |
| CC(C)=CCc1c(O)cc(O)c2c1O[C@H](c1ccc(O)cc1)CC2=O |  | Active | Active |  | Active | Non-Toxic | Non-Toxic | Active |  |  |
| COc1cc(O)c(CC=C(C)C)c(O)c1C(=O)/C=C/c1ccc(O)cc1 [XANTHOHUMOL] |  | inactive | inactive |  | Active | Non-Toxic |  | inactive | Active | 55.3% |
